Assay results published in ChEMBL document CHEMBL5113385, “Natural products and synthetic analogues against HIV: A perspective to develop new potential anti-HIV drugs” (Eur J Med Chem, 2022).

What was measured:
[1] = test system: Human immunodeficiency virus 1; experiment: Antiviral activity against HIV-1 NL4-3 infected in human TZM-bl cells assessed as viral growth inhibition by luciferase assay; assay type: functional, organism-based; conditions: Human immunodeficiency virus 1, NL4-3, TZM-bl
[2] = target: Human immunodeficiency virus type 1 integrase (Human immunodeficiency virus 1, UniProt Q7ZJM1); experiment: Inhibition of recombinant HIV-1 subtype C integrase using double-stranded FITC-labelled target DNA as substrate pre-incubated for 45 mins followed by substrate addition measured after 60 mins by strand transfer inhibition assay
[3] = test system: Human immunodeficiency virus 1; experiment: Antiviral activity against HIV-1 IIIB infected in human MT4 cells assessed as reduction in cytopathic effect measured after 5 days by Cell Titer Glo assay; assay type: functional, organism-based; conditions: Human immunodeficiency virus 1, IIIB, MT4, 120 h
[4] = test system: Human immunodeficiency virus; experiment: Antiviral activity against HIV infected in human PBMC assessed as inhibition of viral infection at MOI of 0.5 incubated for 48 hrs followed by removal of infected supernatant and subsequent addition of supernatant to human LC-5 cells expressing DsRed1 measured after 72 hrs by EASY-HIT assay; assay type: functional, organism-based; conditions: Human immunodeficiency virus 1, PBMC
[5] = test system: Human immunodeficiency virus 1; experiment: Antiviral activity against HIV-1 MC99 harboring deltaTat/Rev infected in human 1A2 cells assessed as reduction in syncytium formation preincubated for 1 hr followed by virus infection measured after 3 days by inverted microscopy; assay type: functional, organism-based; conditions: Human immunodeficiency virus 1, MC99, 1A2
[6] = Selectivity index, ratio of IC50 for human 1A2 cells to EC50 for HIV-1 MC99 harboring deltaTat/Rev infected in human 1A2 cells; assay type: toxicity, cell-based; conditions: read-out: Ratio IC50/EC50
[7] = test system: C8166; experiment: Cytotoxicity against human C8166 cells assessed as reduction in cell viability by MTT assay; assay type: functional
[8] = target: Human immunodeficiency virus type 1 protease (Human immunodeficiency virus 1) (UniProt Q72874); experiment: Inhibition of HIV-1 protease relative to control; conditions: concentration not given here
[9] = target: Human immunodeficiency virus type 1 reverse transcriptase (Human immunodeficiency virus 1) (UniProt Q72547); experiment: Inhibition of recombinant HIV-1 reverse transcriptase at 200 ug/ml by ELISA relative to control; conditions: dose 200.0 µg/ml
[10] = target: T1, Human immunodeficiency virus type 1 reverse transcriptase (Human immunodeficiency virus 1, UniProt Q72547); experiment: Inhibition of HIV-1 reverse transcriptase preincubated for 45 mins followed by substrate addition by immunoassay
[11] = test system: Human immunodeficiency virus 1; experiment: Antiviral activity against HIV-1 NL4-3 infected in human MT4 cells assessed as reduction in viral replication incubated for 48 hrs followed by addition of fresh medium containing compound measured after 2 days by ELISA; assay type: functional, organism-based; conditions: Human immunodeficiency virus 1, NL4-3, MT4, 48 h
[12] = target: T1, Human immunodeficiency virus type 1 reverse transcriptase; experiment: Inhibition of HIV-1 LTR reverse transcriptase infected in human CEM cells using RNA template incubated for 1 hr by RT-PCR based cell-free assay
[13] = target: T1, Human immunodeficiency virus type 1 reverse transcriptase; experiment: Inhibition of HIV-1 reverse transcriptase using ABTS as substrate and RNA template primed with oligo(dT)12-18 in presence of digoxigenin/biotin-labeled nucleotides by ELISA
[14] = target: Human immunodeficiency virus type 1 reverse transcriptase (Human immunodeficiency virus 1) (UniProt Q72547); experiment: Inhibition of HIV-1 reverse transcriptase at 200 ug/ml using poly(A) ribonucleotide as template and oligo d(T)16 as primer incubated for 1 hr by PicoGreen DNA fluorescence assay relative to control; conditions: dose 200.0 µg/ml
[15] = target: Human immunodeficiency virus type 1 reverse transcriptase (Human immunodeficiency virus 1) (UniProt Q72547); experiment: Inhibition of HIV-1 reverse transcriptase using […] and oligo d(T)16 as primer at 200 ug/ml incubated for 1 hr by PicoGreen DNA fluorescence assay relative to control; conditions: dose 200.0 µg/ml
[16] = test system: Human immunodeficiency virus 1; experiment: Antiviral activity against HIV-1 infected in PBMC (unknown origin) assessed as viral growth inhibition; assay type: functional, organism-based; conditions: Human immunodeficiency virus 1, PBMC
[17] = target: T1, Human immunodeficiency virus type 1 reverse transcriptase; experiment: Inhibition of wild-type HIV-1 reverse transcriptase by Picogreen assay

Human immunodeficiency virus type 1 integrase, sequence (Q7ZJM1 whole entry): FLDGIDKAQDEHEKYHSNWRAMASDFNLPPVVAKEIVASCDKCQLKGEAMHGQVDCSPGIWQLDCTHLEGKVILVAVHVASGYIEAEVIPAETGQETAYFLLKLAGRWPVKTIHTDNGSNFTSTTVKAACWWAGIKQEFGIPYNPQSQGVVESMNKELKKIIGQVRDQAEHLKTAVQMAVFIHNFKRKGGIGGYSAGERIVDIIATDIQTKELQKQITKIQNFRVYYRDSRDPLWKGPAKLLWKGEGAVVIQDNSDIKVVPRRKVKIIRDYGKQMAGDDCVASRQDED

Q: With `CCCCCOC(=O)C[C@H](NP(=O)(CO[C@@H](CF)Cn1ccc2c(=O)[nH]c(N)nc21)N[C@@H](CC(=O)OCCCCC)C(=O)OCCCCC)C(=O)OCCCCC` as the molecule, how does the IC50 [1] read?
A: 2000 nM

Q: Which IC50 [1] does the source give for `CCCCCOC(=O)C[C@H](NP(=O)(CO[C@@H](CF)Cn1ccc2c(=O)[nH]c(N)nc21)Oc1ccccc1)C(=O)OCCCCC` (some centres not stated) here?
A: 2000 nM

Q: For `COc1cc2c(c(O)c1C)Oc1c(C=O)c(O)cc(C)c1C(=O)O2`, which IC50 [2] is on record?
A: 4.65 µM

Q: For `COc1cc(F)c(Nc2cc(N)nc(Nc3ccc(C#N)cc3)n2)c(F)c1`, which IC50 [3] is on record?
A: 2 nM

Q: With `COc1oc(C2C/C(=C/C(C)=C/c3ccc(C(F)(F)F)cc3)CO2)c(C)c(=O)c1C` (configuration not stated) as the molecule, how does the IC50 [4] read?
A: < 45 nM

Q: Which results are given for `COc1cc2c(c(O)c1OC)C(=O)C[C@@H](c1cc(O)c(OC)c(O)c1)O2`?
A: EC50 [5]: < 8.02 µM; selectivity ratio [6]: 1.12

Q: For `C=CC(C)(C)c1cc2cc3c(c(CC=C(C)C)c2oc1=O)O[C@H](C(C)(C)O)C3`, which CC50 [7] is on record?
A: > 200 µM

Q: With `CC(C)=CCc1cc2ccc(=O)oc2c(CC=C(C)C)c1O` as the molecule, how does the CC50 [7] read?
A: > 200 µM

Q: With `C=CC(C)(C)c1cc2cc3c(cc2oc1=O)O[C@H](C(C)(C)O)[C@H]3O` as the molecule, how does the CC50 [7] read?
A: > 200 µM

Q: For `C=C(C)[C@@H]1CC[C@@H]2[C@]3(CC[C@]4(C)/C(=C(\C)CC/C=C(/C)C(=O)O)CC[C@@]24C)C[C@]13CCC(=O)O`, which inhibition [8] is on record?
A: 85%

Q: Which inhibition [9] does the source give for `O=c1c(O)c(-c2ccc(O)c(O)c2)oc2cc(O)cc(O)c12` here?
A: 43.4%

Q: Which CC50 [7] does the source give for `CC1(C)CCc2cc3cc(O)c(=O)oc3cc2O1` here?
A: > 200 µM

Q: Which IC50 [10] does the source give for `O=C1CSC(c2ccc(F)cc2)N1c1nc2c(Cl)cccc2s1` (configuration not stated) here?
A: < 1 nM

Q: What does the source list for `COc1cc([C@@H]2CC(=O)c3c(cc(OC)c(OC)c3O)O2)cc(OC)c1OC`?
A: EC50 [5]: 172 µM; selectivity ratio [6]: 1.12

Q: Which IC50 [11] does the source give for `CCCCC/C=C/C=C/O[C@@]12[C@@H]([C@H]3OCO[C@@]3(C(C)=O)[C@H](OC(=O)CCCC)[C@H]1C)[C@@H]1O[C@]1(CO)[C@@H](O)[C@]1(O)C(=O)C(C)=C[C@H]12` here?
A: 0.9 nM

Q: Which CC50 [7] does the source give for `CC1(C)Oc2cc3oc(=O)ccc3cc2[C@@H](O)[C@@H]1O` here?
A: > 200 µM

Q: Which IC50 [12] does the source give for `C=CCOCc1cn(C2CCON2C(=O)OCc2ccccc2)c(=O)[nH]c1=O` (configuration not stated) here?
A: 10 nM

Q: With `COC(=O)/C=C/c1c(-c2cccs2)[nH]c2ccccc12` as the molecule, how does the IC50 [13] read?
A: 720 nM

Q: With `CCCCC/C=C/C=C/O[C@@]12[C@@H]([C@H]3OCO[C@@]3(C(C)=O)[C@H](OC(=O)CCCCC)[C@H]1C)[C@@H]1O[C@]1(CO)[C@@H](O)[C@]1(O)C(=O)C(C)=C[C@H]12` as the molecule, how does the IC50 [11] read?
A: 0.9 nM

Q: For `CC(=O)N[C@H]1[C@H](O[C@H]2CC[C@]3(C)[C@H]4CC=C5[C@@H]6CC(C)(C)CC[C@]6(C(=O)O)CC[C@@]5(C)[C@]4(C)CC[C@H]3C2(C)C)O[C@H](CO)[C@@H](O)[C@@H]1O`, which IC50 [2] is on record?
A: 18.3 µM

Q: With `C=C(C)[C@]12C[C@@H](COC(C)=O)[C@@]34OC5(O[C@@H]1[C@@H]3[C@@H]1O[C@]1(CO)[C@@H](O)[C@@]1(O)[C@H]4[C@H]([C@H](C)[C@@H]1C(=O)c1ccccc1)[C@H](C)C[C@H](C(=O)c1ccccc1)[C@H](OC(C)=O)[C@@H](C(=O)c1ccccc1)CC[C@H]5O)O2` as the molecule, how does the IC50 [11] read?
A: ≤ 0.25 nM

Q: Which CC50 [7] does the source give for `CC(C)(O)C(=O)Cc1cc2ccc(=O)oc2cc1O` [PEUCEDANONE] here?
A: > 200 µM

Q: What does the source list for `COc1cc(OC)c([C@@H]2CC[C@H]3C[C@@H](c4cc(OC)c(OC)cc4OC)Oc4cc(OC)c(O)c2c43)cc1OC`?
A: selectivity ratio [6]: 3.7; inhibition [14]: 41.4%; inhibition [15]: 41.4%

Q: Which CC50 [7] does the source give for `COc1cc2cc3c(cc2oc1=O)OC(C)(C)CC3` here?
A: > 200 µM

Q: Which IC50 [12] does the source give for `O=C(OCc1ccccc1)N1OCCC1n1cc(COCc2ccccc2)c(=O)[nH]c1=O` (configuration not stated) here?
A: 1000 nM

Q: Which EC50 [16] does the source give for `COc1cc(O)c(-c2c(C)cc(O)c3c2Cc2cccc(O)c2C3=O)c(O)c1C(C)=O` here?
A: 4.3 µM

Q: For `N#Cc1ccc2c(Oc3ccccc3OCCn3ccc(=O)[nH]c3=O)cc(F)cc2c1`, which IC50 [17] is on record?
A: 4.8 nM

Q: Which CC50 [7] does the source give for `C=C(C)[C@@H]1Cc2c(cc3oc(=O)ccc3c2O)O1` here?
A: > 200 µM
